# Measured values from patent US20250236600A1, “SUBSTITUTED VINYL PIPERAZINE-PIPERIDINE UREA DERIVATIVES AS ANTICANCER AGENTS” (UNIVERSITA' DEGLI STUDI DI PAVIA, priority 2021, published 2025).
# Entries after “also recorded” stand apart in the source; their conditions may differ.
# Key:
# RPMI 8226 cells [1] = experiment: Boyden chamber cell invasion, RPMI 8226; type: cell-based, Human; conditions: RPMI 8226, treated at IC20 of SRB assay, 24 hours; for cell invasion (result in words): FIG. 10B; for cell invasion compared to untreated control: control = 100%
# Experimental: (§1) Cell invasion is evaluated by Boyden Chamber. In Boyden chamber, cells attracted by a chemoattractant pass through a porous membrane coated with gelatine. This in vitro assay is indicative of the ability of cells to cross an extracellular substrate and invade surrounding tissues. U87-MG and RPMI cells were resuspended in FBS-free medium, with or without treatments. IC20 obtained in SRB assay was used as compound treatment concentration, in order to not affect the invasion results with a too high mortality. 5×10^3 cells/well were seeded in the upper compartment of the Boyden chamber. In the lower compartment a complete medium supplemented with 10% FBS was placed. FBS was used as chemoattractant. Between the two compartments, a gelatine coated polycarbonate membrane with 8 μm pores was placed. The Boyden chamber, thus set up, was placed at 37° C. in an incubator for 24 hours (RPMI 8226 cells) or for 16 hours (U87-MG cells). After incubation membrane was removed and cells on the lower surface of the membrane were fixed and stained with Diffquick staining kit. Micrographs were taken and cells were counted using ImageJ software.
# (§2) Statistical analysis of the data obtained was performed using the ANOVA and the Dunnet's post-hoc test. Values of p<0.01 (**) were considered statistically significant.
# (§3) The results, expressed as the mean±standard deviation, represents the percentage of cells that are able to pass through the membrane compared to untreated control (arbitrarily set to 100%).
# U87-MG cells [2] = experiment: Scratch wound healing cell migration assay; type: cell-based, Human; conditions: 1-10 μM, 24 hours, FIG. 9
# Experimental: FIG. 9 represent cell migration assays on U87-MG cells.
# The scratch wound healing assay evaluates the ability of cells to close a manually created gap on the cell monolayer in vitro. This assay is indicative of cell motility and the ability of cells to propagate locally.
# Cells were seeded in 6-well plates and were incubated until reaching confluence. At this point, using a plastic tip, a scratch was manually created on the surface of the cell monolayer. Culture medium was then replaced with fresh medium with or without treatments. Cells were treated with increasing concentrations of the compounds (1-10 μM). Micrographs were taken immediately after the scratch (t0) and 24 hours later (t24). The area of the scratch was measured using ImageJ software and cell migration area was calculated by subtracting the t24 area from the t0 area.
# (§4) Statistical analysis of the data obtained was performed using the one-way analysis of variance (ANOVA) and the Dunnet's post-hoc test. Values of p<0.01 (**) were considered statistically significant.
# The results, expressed as the mean±standard deviation, represents the percentage of the cell migration area compared to untreated control (arbitrarily set to 100%).
# Proteasome [3] = experiment: Proteasome activity (7-Amido-4-Methylcoumarin fluorescent probe) in RPMI 8226 cells; type: cell-based, Human; conditions: RPMI 8226, treated at IC50 of SRB assay, 24 hours
# Experimental: (§5) Proteasome is a cellular complex responsible for the degradation of a high amount of regulatory, misfolded or damaged intracellular proteins. It is considered an important target for anticancer therapy. Proteasome activity was evaluated by 7-Amido-4-Methylcoumarin fluorescent probe. U87-MG and RPMI 8226 cells were cultured in 6 well-plates at 25×10^4 cells/well density and were treated with IC50 concentration of each compound (calculated in SRB assay). After 24 hours of treatment, cells were collected and total protein extracts were obtained. Lysis buffer (5 mM Hepes pH 7.5, 150 mM NaCl, 10% glycerol, 1% Triton X100, 1.5 mM MgCl2, 5 mM EGTA) was […] with proteases and phosphatases inhibitors. Protein content was quantified using Bradford method. 40 μg of proteins were mixed with proteasome buffer (250 mM Hepes pH 7.5, 5 mM EDTA, 0.5% NP-40, 0.01% SDS) and 2.2 mM 7-Amido-4-Methylcoumarin. After 2 hours of incubation at 37° C., fluorescence was quantified in a microplate reader (excitation 380 nm, emission 460 nm). Statistical analysis of the data obtained was performed using the ANOVA and the Dunnet's post-hoc test. Values of p<0.01 (**) were considered statistically significant. The results, expressed as the mean±standard deviation, represents the percentage of proteasome activity compared to untreated control (arbitrarily set to 100%).
# [4] = tested on: dorsal root ganglia (DRG); experiment: NGF-induced neurite outgrowth of DRG organotypic cultures (neurotoxic effect); type: cell-based, embryonic Sprague-Dawley rats; conditions: for neurotoxicity in vitro (result in words): concentrations = IC20, IC50, IC80 of U87-MG SRB assay, neurotoxic if neurites length less than 50% of control
# Experimental: Evaluation of NGF-induced neurite outgrowths was performed on dorsal root ganglia (DRG) of 15-day-old embryonic Sprague-Dawley rats. Briefly, DRG were aseptically collected and plated onto collagen coated dishes. DRG were cultured in AN2 medium supplemented with 5 ng/mL NGF in a 5% CO2 humidified incubator at 37° C. DRG were treated after 2 hours with increasing concentrations of compounds, corresponding to IC20, IC50 and IC80 in U87-MG SRB assay. Micrographs of DRG were taken after 24 and 72 hours of treatment and neurite elongation was manually measured using ImageJ software.
# as §2
# The results, expressed as the mean±standard deviation, represents the percentage of neurite outgrowth compared to untreated control (arbitrarily set to 100%).
# According to this method of in vitro neurotoxicity evaluation, a compound can be considered neurotoxic if neurites length is less than 50% of the control.
# U87-MG cells [5] = experiment: Boyden chamber cell invasion, U87-MG; type: cell-based, Human; conditions: treated at IC20 of SRB assay, 16 hours, FIG. 10A
# Experimental: as §1, §2, §3
# RPMI 8226 cells [6] = experiment: Sulforhodamine B (SRB) cell viability assay, RPMI 8226; type: cell-based, Human; conditions: RPMI 8226, SRB assay, 24 hours; for IC20 / IC50: Homo sapiens
# Text: (§6) Sulforhodamine B (SRB) assay was used to evaluate RPMI 8226 cell viability in vitro. It is a widely used method to evaluate cell viability and cytotoxicity. This method relies on the property of SRB, which binds stoichiometrically to proteins under mild acidic conditions. Thus, the amount of bound dye can be used as measure of cell proliferation.
# (§7) Human RPMI 8226 and U87-MG cells were growth in culture medium (DMEM low glucose for U87-MG and RPMI 1640 for RPMI 8226), supplemented with 10% fetal bovine serum, 1% L-glutamine, 1% penicillin and streptomycin. Cells were maintained in a humidified incubator at 37° C. and 5% CO2. For SRB assay, 1×10^4/well cells were seeded in a 96-well plate and were treated with increasing concentrations of the compounds (1-20 μM). After 24 hours, cells were fixed with 10% trichloroacetic acid and were stained with SRB solution. Excess of dye was removed by washing with 1% acetic acid. The protein-bound dye was then dissolved in 10 mM Tris base solution and absorbance was measured at 510 nm using a microplate reader.
# as §4
# (§8) The results, expressed as the mean±standard deviation, represents the percentage of viable cells compared to untreated control (arbitrarily set to 100%).
# (§9) FIG. 7 represents the results obtained in U87-MG cells after treatment with compound 26 (A), 27 (B), 28 (C) 29 (D) and 30 (E). FIG. 8 represents the results obtained for RPMI 8226 cells after treatment with compound 26 (A), 27 (B), 28 (C) 29 (D) and 30 (E). Cells were treated for 24 hours with increasing concentrations of compounds (1, 5, 10 and 20 μM).
# U87-MG cells [7] = experiment: Sulforhodamine B (SRB) cell viability assay, U87-MG; type: cell-based; conditions: Homo sapiens, U-87 MG, 24 hours
# Text: as §6, §7, §4, §8, §9
# Proteasome [8] = experiment: Proteasome activity (7-Amido-4-Methylcoumarin fluorescent probe) in U87-MG cells; type: cell-based, Human; conditions: treated at IC50 of SRB assay, 24 hours; for proteasome inhibition: FIG. 11A
# Experimental: as §5
smiles,measurement,setting,value
"COc1ccc2cc(/C(C)=C/CN3CCN(C(=O)Nc4ccc(C(F)(F)F)cc4)CC3)ccc2c1 [Compound 29, (E)-4-(3-(6-methoxynaphthalen-2-yl)but-2-en-1-yl)-N-(4-(trifluoromethyl)phenyl)piperazine-1-carboxamide]",cell invasion (result in words),RPMI 8226 cells [1],"statistically significant, however lower than the one obtained in U87-MG cells"
same,cell migration (result in words),U87-MG cells [2],strong cell migration inhibitors
same,proteasome inhibition (result in words),Proteasome [3],only a weak inhibitory effect; also recorded: only weak inhibitory activity
same,neurotoxicity in vitro (result in words),"[4]; rat DRG, 24 and 72 hours",not neurotoxic at all evaluated concentrations and time points
same,cell invasion (result in words),U87-MG cells [5],"reduced cell invasion, but it was less effective than compound 28; also recorded: significantly able of inhibiting the invasion"
same,IC20,RPMI 8226 cells [6],8.1 ± 0.3 µM
same,IC50,RPMI 8226 cells [6],4.8 ± 0.1 µM
same,IC80,RPMI 8226 cells [6],2.9 ± 0.1 µM
same,IC50,U87-MG cells [7],7.1 ± 0.1 µM
same,proteasome inhibition (result in words),Proteasome [8],only a weak inhibitory effect; also recorded: only weak inhibitory activity
same,proteasome inhibition,Proteasome [8],~50%
"C/C(=C\CN1CCN(C(=O)NC2CCCC2)CC1)c1ccc2ccccc2c1 [Compound 26, (E)-N-cyclopentyl-4-(3-(naphthalen-2-yl)but-2-en-1-yl)piperazine-1-carboxamide]",cell invasion compared to untreated control,RPMI 8226 cells [1],~80%
same,cell migration (result in words),U87-MG cells [2],weak ability to reduce migration
same,proteasome inhibition (result in words),Proteasome [3],able of inhibiting the proteasome activity
same,concentration up to which not neurotoxic,"[4]; rat DRG neurite outgrowth, 24 and 72 hours",up to 13 μM
same,neurotoxicity in vitro (result in words),"[4]; rat DRG, 24 and 72 hours",at the highest concentration evaluated it was found to be neurotoxic
same,cell invasion (result in words),U87-MG cells [5],weak effect against cell invasion
same,IC20,RPMI 8226 cells [6],22.6 ± 2 µM
same,IC50,RPMI 8226 cells [6],7.9 ± 0.7 µM
same,IC80,RPMI 8226 cells [6],3.9 ± 1.2 µM
same,IC50,U87-MG cells [7],13.3 ± 0.6 µM
same,proteasome inhibition (result in words),Proteasome [8],able of inhibiting the proteasome activity
same,proteasome inhibition,Proteasome [8],~50%
"C/C(=C\CN1CCN(C(=O)NC2CCCCC2)CC1)c1ccc2ccccc2c1 [Compound 27, (E)-N-cyclohexyl-4-(3-(naphthalen-2-yl)but-2-en-1-yl)piperazine-1-carboxamide]",cell invasion compared to untreated control,RPMI 8226 cells [1],~80%
same,cell migration (result in words),U87-MG cells [2],strong cell migration inhibitors
same,proteasome inhibition (result in words),Proteasome [3],not an inhibitory effect
same,neurotoxicity in vitro (result in words),"[4]; rat DRG, 24 and 72 hours",not neurotoxic at all evaluated concentrations and time points
same,cell invasion (result in words),U87-MG cells [5],weak effect against cell invasion
same,IC20,RPMI 8226 cells [6],9.5 ± 3.7 µM
same,IC50,RPMI 8226 cells [6],6.4 ± 0.3 µM
same,IC80,RPMI 8226 cells [6],4.2 ± 2.1 µM
same,IC50,U87-MG cells [7],10 ± 0.5 µM
"C/C(=C\CN1CCN(C(=O)Nc2ccc(C)cc2)CC1)c1ccc2ccccc2c1 [Compound 28, (E)-4-(3-(naphthalen-2-yl)but-2-en-1-yl)-N-(p-tolyl)piperazine-1-carboxamide]",cell invasion (result in words),RPMI 8226 cells [1],"statistically significant, however lower than the one obtained in U87-MG cells"
same,cell migration (result in words),U87-MG cells [2],strong cell migration inhibitors
same,proteasome inhibition (result in words),Proteasome [3],able of inhibiting the proteasome activity
same,neurotoxicity in vitro (result in words),"[4]; rat DRG, 24 and 72 hours",not neurotoxic at all evaluated concentrations and time points
same,cell invasion (result in words),U87-MG cells [5],very effective in reducing cell invasion; also recorded: significantly able of inhibiting the invasion
same,IC20,RPMI 8226 cells [6],7.1 ± 0.6 µM
same,IC50,RPMI 8226 cells [6],3.7 ± 0.6 µM
same,IC80,RPMI 8226 cells [6],1.9 ± 0.5 µM
same,IC50,U87-MG cells [7],10.8 ± 1.8 µM
same,proteasome inhibition (result in words),Proteasome [8],able of inhibiting the proteasome activity
"COc1ccc2cc(/C(C)=C/CN3CCN(C(=O)Nc4c(F)cccc4F)CC3)ccc2c1 [Compound 30, (E)-N-(2,6-difluorophenyl)-4-(3-(6-methoxynaphthalen-2-yl)but-2-en-1-yl)piperazine-1-carboxamide]",cell invasion compared to untreated control,RPMI 8226 cells [1],~80%
same,cell migration (result in words),U87-MG cells [2],strong cell migration inhibitors
same,proteasome inhibition (result in words),Proteasome [3],only a weak inhibitory effect
same,"neurite length, percentage of untreated control","[4]; rat DRG, all evaluated concentrations",higher than 50%
same,neurotoxicity in vitro (result in words),"[4]; rat DRG, 24 and 72 hours",not neurotoxic in vitro; also recorded: not neurotoxic at all evaluated concentrations
same,cell invasion (result in words),U87-MG cells [5],not effective
same,IC20,RPMI 8226 cells [6],7.3 ± 0.1 µM
same,IC50,RPMI 8226 cells [6],4.5 ± 0.2 µM
same,IC80,RPMI 8226 cells [6],2.9 ± 0.1 µM
same,IC50,U87-MG cells [7],12.2 ± 0.3 µM
